This passage reports TGI results from PubChem BioAssay (NCI).

The structures appear in SMILES notation.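 These data come from cells grown in 96-well plates and exposed to compound for 48 hours at five concentrations. TGI denotes the concentration required for complete inhibition of growth.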

One experiment relates to SN12C renal. In words: growth of human tumour cells (NCI), 48 h.
With `C=CCNC(=O)NC(=O)CSC1=NNC2(C(=O)N1)c1ccccc1-c1ccccc12`, the TGI is over 10 µM.

As to `O=C1CCCCC/C1=C\c1cccc(Cl)c1`, the TGI was over 100 µM.

On to `COC(=O)C1(C(=O)OC)Cc2ccc(OC)cc2C2=C1C(=O)c1ccccc1C2=O`, for which the TGI was found to be 14.4 µM.

Take `O=C1C(Cl)C2(CC(/C=C/c3ccccc3Cl)=NN2c2cccc(S(=O)(=O)O)c2)N1c1nc2ccccc2s1` (stereo unspecified): the TGI is over 100 µM.

`Nc1ncnn2c(C3OC(CO)C(O)C3O)ccc12` (stereo unspecified): the TGI amounted to 2.7 µM.

`COCCOC(=O)c1c(C)n([O-])c2cc(Cl)c(Cl)cc2[n+]1=O` came in with a TGI of 70 µM.

The molecule `O=C(CC(=O)N(C(=O)/C=C\c1ccccc1)c1ccc(Cl)cc1)N1N=C(c2ccccc2)C(N=Nc2cccc([N+](=O)[O-])c2)C1=O` (stereo unspecified) yielded a TGI of over 100 µM.

Molecule `Cn1c(=O)c(Br)c(C=O)n(CCO[N+](=O)[O-])c1=O` gave a TGI of 17.4 µM.

Molecule `COc1ccc(-c2c(C#N)c(N)n(C3OCC(OC(C)=O)C(OC(C)=O)C3OC(C)=O)c(=S)c2C#N)cc1` (stereo unspecified) showed a TGI of over 100 µM.

A further experiment deals with UACC-257 melanoma. The experiment can be described thus: growth of human tumour cells (NCI), 48 h.
Turning to `CCCCCCCCCCCCCCCCCCNc1ccn(C2OC(COP(=O)(O)OCC3OC(n4cc(F)c(=O)[nH]c4=O)CC3O)C(O)C2O)c(=O)n1` (stereo unspecified), the TGI is over 100 µM.

`CCOC(=O)/C(C#N)=C\c1ccc(N(CCC(=O)O)CCC(=O)O)c(I)c1` had a TGI of over 10 µM.

Take `O=C(NC1=NCC(CN2CCN(c3ccccc3)CC2)O1)Nc1ccccc1` (stereo unspecified): the TGI is over 100 µM.

`Cc1cc2ccccc2n2c1nc1ccccc12`: the TGI is over 100 µM.

With `CC(=O)C(=C(c1ccccc1)c1ccccc1)c1ccccc1`, the TGI is over 100 µM.

On to `Cc1ccc2c(c1)[nH]c(=S)n2/C=C1\C(=O)Oc2ccccc2C1=O`, for which the TGI is over 100 µM.

`C=CCNC(=O)NC(=O)CSC1=NNC2(C(=O)N1)c1ccccc1-c1ccccc12` displayed a TGI of over 10 µM.

For the molecule `O=C1CCCCC/C1=C\c1cccc(Cl)c1`, the TGI was over 100 µM.

`COC(=O)C1(C(=O)OC)Cc2ccc(OC)cc2C2=C1C(=O)c1ccccc1C2=O`: the TGI amounted to 7.15 µM.

`O=C1C(Cl)C2(CC(/C=C/c3ccccc3Cl)=NN2c2cccc(S(=O)(=O)O)c2)N1c1nc2ccccc2s1` (stereo unspecified) yielded a TGI of over 100 µM.

As to `Nc1ncnn2c(C3OC(CO)C(O)C3O)ccc12` (stereo unspecified), the TGI turned out to be 0.417 µM.

On to `COCCOC(=O)c1c(C)n([O-])c2cc(Cl)c(Cl)cc2[n+]1=O`, for which the TGI is over 100 µM.

For `COc1ccc(-c2c(C#N)c(N)n(C3OCC(OC(C)=O)C(OC(C)=O)C3OC(C)=O)c(=S)c2C#N)cc1` (stereo unspecified), the TGI was over 100 µM.

A further experiment concerns ACHN renal. In words: growth of human tumour cells (NCI), 48 h.
Take `CCCCCCCCCCCCCCCCCCNc1ccn(C2OC(COP(=O)(O)OCC3OC(n4cc(F)c(=O)[nH]c4=O)CC3O)C(O)C2O)c(=O)n1` (stereo unspecified): the TGI was over 100 µM.

`CCOC(=O)/C(C#N)=C\c1ccc(N(CCC(=O)O)CCC(=O)O)c(I)c1` had a TGI of over 10 µM.

Regarding `O=C(NC1=NCC(CN2CCN(c3ccccc3)CC2)O1)Nc1ccccc1` (stereo unspecified), the TGI is over 100 µM.

Molecule `Cc1cc2ccccc2n2c1nc1ccccc12` returned a TGI of over 100 µM.

The molecule `CC(=O)C(=C(c1ccccc1)c1ccccc1)c1ccccc1` gave a TGI of over 100 µM.

On to `Cc1ccc2c(c1)[nH]c(=S)n2/C=C1\C(=O)Oc2ccccc2C1=O`, for which the TGI is over 100 µM.

On to `C=CCNC(=O)NC(=O)CSC1=NNC2(C(=O)N1)c1ccccc1-c1ccccc12`, for which the TGI is over 10 µM.

Molecule `O=C1CCCCC/C1=C\c1cccc(Cl)c1` came in with a TGI of over 100 µM.

`COC(=O)C1(C(=O)OC)Cc2ccc(OC)cc2C2=C1C(=O)c1ccccc1C2=O`: the TGI amounted to 15.1 µM.

Consider `O=C1C(Cl)C2(CC(/C=C/c3ccccc3Cl)=NN2c2cccc(S(=O)(=O)O)c2)N1c1nc2ccccc2s1` (stereo unspecified), for which the TGI was over 100 µM.

With `Nc1ncnn2c(C3OC(CO)C(O)C3O)ccc12` (stereo unspecified), the TGI stood at 0.645 µM.

In the case of `COCCOC(=O)c1c(C)n([O-])c2cc(Cl)c(Cl)cc2[n+]1=O`, the TGI is 29.3 µM.

Regarding `O=C(CC(=O)N(C(=O)/C=C\c1ccccc1)c1ccc(Cl)cc1)N1N=C(c2ccccc2)C(N=Nc2cccc([N+](=O)[O-])c2)C1=O` (stereo unspecified), the TGI is over 100 µM.

Take `Cn1c(=O)c(Br)c(C=O)n(CCO[N+](=O)[O-])c1=O`: the TGI was determined as 13.2 µM.

`COc1ccc(-c2c(C#N)c(N)n(C3OCC(OC(C)=O)C(OC(C)=O)C3OC(C)=O)c(=S)c2C#N)cc1` (stereo unspecified) gave a TGI of over 100 µM.

A further experiment concerns KM12 colon. In words: growth of human tumour cells (NCI), 48 h.
Molecule `CCCCCCCCCCCCCCCCCCNc1ccn(C2OC(COP(=O)(O)OCC3OC(n4cc(F)c(=O)[nH]c4=O)CC3O)C(O)C2O)c(=O)n1` (stereo unspecified) displayed a TGI of 41.8 µM.

For the molecule `CCOC(=O)/C(C#N)=C\c1ccc(N(CCC(=O)O)CCC(=O)O)c(I)c1`, the TGI is over 10 µM.

Molecule `O=C(NC1=NCC(CN2CCN(c3ccccc3)CC2)O1)Nc1ccccc1` (stereo unspecified) returned a TGI of over 100 µM.

As to `Cc1cc2ccccc2n2c1nc1ccccc12`, the TGI was over 100 µM.

`CC(=O)C(=C(c1ccccc1)c1ccccc1)c1ccccc1` yielded a TGI of over 100 µM.

`Cc1ccc2c(c1)[nH]c(=S)n2/C=C1\C(=O)Oc2ccccc2C1=O` registered a TGI of over 100 µM.

Turning to `C=CCNC(=O)NC(=O)CSC1=NNC2(C(=O)N1)c1ccccc1-c1ccccc12`, the TGI is over 10 µM.

In turn, `O=C1CCCCC/C1=C\c1cccc(Cl)c1` gave a TGI of over 100 µM.

In turn, `COC(=O)C1(C(=O)OC)Cc2ccc(OC)cc2C2=C1C(=O)c1ccccc1C2=O` gave a TGI of 23.5 µM.

As for `O=C1C(Cl)C2(CC(/C=C/c3ccccc3Cl)=NN2c2cccc(S(=O)(=O)O)c2)N1c1nc2ccccc2s1` (stereo unspecified), the TGI was over 100 µM.

`Nc1ncnn2c(C3OC(CO)C(O)C3O)ccc12` (stereo unspecified) yielded a TGI of 0.677 µM.

`COCCOC(=O)c1c(C)n([O-])c2cc(Cl)c(Cl)cc2[n+]1=O` gave a TGI of 25.7 µM.

In turn, `O=C(CC(=O)N(C(=O)/C=C\c1ccccc1)c1ccc(Cl)cc1)N1N=C(c2ccccc2)C(N=Nc2cccc([N+](=O)[O-])c2)C1=O` (stereo unspecified) came in with a TGI of 38.7 µM.

`COc1ccc(-c2c(C#N)c(N)n(C3OCC(OC(C)=O)C(OC(C)=O)C3OC(C)=O)c(=S)c2C#N)cc1` (stereo unspecified) registered a TGI of over 100 µM.

The next experiment deals with SF-539 CNS. In words: growth of human tumour cells (NCI), 48 h.
Regarding `CCOC(=O)/C(C#N)=C\c1ccc(N(CCC(=O)O)CCC(=O)O)c(I)c1`, the TGI was over 10 µM.

The molecule `Cc1cc2ccccc2n2c1nc1ccccc12` had a TGI of over 100 µM.

Take `CC(=O)C(=C(c1ccccc1)c1ccccc1)c1ccccc1`: the TGI is over 100 µM.

Molecule `Cc1ccc2c(c1)[nH]c(=S)n2/C=C1\C(=O)Oc2ccccc2C1=O` registered a TGI of over 100 µM.

`C=CCNC(=O)NC(=O)CSC1=NNC2(C(=O)N1)c1ccccc1-c1ccccc12` came in with a TGI of over 10 µM.

`COC(=O)C1(C(=O)OC)Cc2ccc(OC)cc2C2=C1C(=O)c1ccccc1C2=O`: the TGI amounted to 30.7 µM.

The molecule `O=C1C(Cl)C2(CC(/C=C/c3ccccc3Cl)=NN2c2cccc(S(=O)(=O)O)c2)N1c1nc2ccccc2s1` (stereo unspecified) displayed a TGI of 37.6 µM.

For the molecule `Nc1ncnn2c(C3OC(CO)C(O)C3O)ccc12` (stereo unspecified), the TGI was 0.403 µM.

Consider `COCCOC(=O)c1c(C)n([O-])c2cc(Cl)c(Cl)cc2[n+]1=O`, for which the TGI is 51.1 µM.

`O=C(CC(=O)N(C(=O)/C=C\c1ccccc1)c1ccc(Cl)cc1)N1N=C(c2ccccc2)C(N=Nc2cccc([N+](=O)[O-])c2)C1=O` (stereo unspecified): the TGI was 25.8 µM.

In the case of `Cn1c(=O)c(Br)c(C=O)n(CCO[N+](=O)[O-])c1=O`, the TGI was determined as 32.8 µM.

For the molecule `COc1ccc(-c2c(C#N)c(N)n(C3OCC(OC(C)=O)C(OC(C)=O)C3OC(C)=O)c(=S)c2C#N)cc1` (stereo unspecified), the TGI is over 100 µM.

A further experiment has as its system SK-MEL-2 melanoma. The experiment can be described thus: growth of human tumour cells (NCI), 48 h.
Take `CCCCCCCCCCCCCCCCCCNc1ccn(C2OC(COP(=O)(O)OCC3OC(n4cc(F)c(=O)[nH]c4=O)CC3O)C(O)C2O)c(=O)n1` (stereo unspecified): the TGI is over 100 µM.

In turn, `O=C(NC1=NCC(CN2CCN(c3ccccc3)CC2)O1)Nc1ccccc1` (stereo unspecified) returned a TGI of over 100 µM.

As for `Cc1ccc2c(c1)[nH]c(=S)n2/C=C1\C(=O)Oc2ccccc2C1=O`, the TGI was over 100 µM.
